Data as given in patent US8304539B2, “Fused heteroaryl modulators of glucocorticoid receptor, AP-1, and/or NF-κB activity and use thereof” (Bristol-Myers Squibb Company, priority 2008, dated 2012).

Test system: AP-1
Test: Cellular transrepression assay (AP-1 luciferase reporter in A549 cells, PMA activated)
Type: cell-based
Conditions: 7 h, 10 ng/ml PMA; for EC50: read-out: AP-1 (EC50, nM) (measured in cellular transrepression assay); for Emax: read-out: AP-1 Max % inhibition (measured in cellular transrepression assay)
Experimental: Cellular Transrepressional Assay
To measure the ability of test molecules to inhibit AP-1 induced transcriptional activity we utilized an A549 cell which was stably transfected with a plasmid containing 7×AP-1 DNA binding sites (pAP-1-Luc plasmid, Stratagene Co. La Jolla, Calif.) followed by the gene for luciferase. Cells were activated with 10 ng/ml of phorbol myristic acid (PMA) plus or minus test molecules for 7 hours. After 7 hours a luciferase reagent was added to measure luciferase enzymatic activity in the cell. After a 10 minute incubation of luciferase reagent with cells, luminescence was measured in a TopCount luminescence counter. Repression of AP-1 activity was calculated as the percentage decrease in the signal induced by PMA alone. Test molecules were analyzed in the concentration range from 0.1 nM to 40 μM. EC50s were determined by using standard curve fitting methods such as Excel fit (Microsoft Co.). An EC50 is the test molecule concentration at which there is a 50% repression of the maximal inhibition of transcription, i.e. a 50% reduction of AP-1 activity.

Row | EC50 | SMILES | Emax
1 | 194 nM | CN(C)C(=O)c1ccc(-c2ccc3c(n2)Oc2ncccc2C3C(C)(C)C(=O)Nc2nncs2)cc1 (single isomer, unassigned) [Example 8] | 45.2%
2 | 66.2 nM | CCN(C)C(=O)c1ccc(-c2ccc3c(n2)Oc2ncccc2C3C(C)(C)C(=O)Nc2nncs2)cc1 (single isomer, unassigned) [Example 9] | 55.4%
3 | 368 nM | CC[S+]([O-])c1ccc(-c2ccc3c(n2)Oc2nc(C)ccc2C3C(C)(C)C(=O)Nc2nncs2)cc1 (stereo in doubt) [Example 81, 2-((5S)-2-(4-(ethylsulfinyl)phenyl)-8-methyl-5H-pyrido[3′,2′:5,6]pyrano[2,3-b]pyridin-5-yl)-2-methyl-N-1,3,4-thiadiazol-2-ylpropanamide] | 28.7%
4 | 181 nM | Cc1ccc2c(n1)Oc1nc(-c3ccc([S+]([O-])C(C)C)cc3)ccc1C2C(C)(C)C(=O)Nc1nncs1 (stereo in doubt) [Example 82, 2-((5S)-2-(4-(isopropylsulfinyl)phenyl)-8-methyl-5H-pyrido[3′,2′:5,6]pyrano[2,3-b]pyridin-5-yl)-2-methyl-N-1,3,4-thiadiazol-2-ylpropanamide] | 34.4%
5 | 255 nM | CN(C)C(=O)c1ccc(-c2ccc3c(n2)Oc2cnccc2C3C(C)(C)C(=O)Nc2nncs2)cc1 (stereo not shown) [Example 1, 4-(5-(1,1-dimethyl-2-oxo-2-(1,3,4-thiadiazol-2-ylamino)ethyl)-5H-pyrido[4′,3′:5,6]pyrano[2,3-b]pyridin-2-yl)-N,N-dimethylbenzamide] | 29.3%
6 | 189 nM | CN(C)C(=O)c1ccc(-c2ccc3c(n2)Oc2ncccc2C3C(C)(C)C(=O)Nc2nncs2)cc1 (stereo not shown) [Example 3, 4-(5-(1,1-dimethyl-2-oxo-2-(1,3,4-thiadiazol-2-ylamino)ethyl)-5H-pyrido[3′,2′:5,6]pyrano[2,3-b]pyridin-2-yl)-N,N-dimethylbenzamide] | 38.6%
7 | 197 nM | CCN(C)C(=O)c1ccc(-c2ccc3c(n2)Oc2ncccc2C3C(C)(C)C(=O)Nc2nncs2)cc1 (stereo not shown) [Example 4] | 46.6%
8 | 142 nM | CC(C)(C(=O)Nc1nncs1)C1c2cccnc2Oc2nc(-c3ccc(C(=O)N4CCOCC4)cc3)ccc21 (stereo not shown) [Example 5] | 33.9%
9 | 189 nM | Cc1ccc2c(n1)Oc1nc(-c3ccc(C(=O)N(C)C)cc3)ccc1C2C(C)(C)C(=O)Nc1nncs1 (stereo not shown) [Example 10, 4-(5-(1,1-dimethyl-2-oxo-2-(1,3,4-thiadiazol-2-ylamino)ethyl)-8-methyl-5H-pyrido[3′,2′:5,6]pyrano[2,3-b]pyridin-2-yl)-N,N-dimethylbenzamide] | 39%
10 | 90.1 nM | Cc1ccc2c(n1)Oc1nc(-c3ccc(C(=O)N(C)C)cc3)ccc1[C@H]2C(C)(C)C(=O)Nc1nncs1 [Example 11] | 45.2%
11 | 297 nM | Cc1ccc2c(n1)Oc1nc(-c3ccc(C(=O)N(C)C)cc3)ccc1[C@H]2C(C)(C)C(=O)Nc1nnc(C)s1 [Example 12] | 26.6%
12 | 233 nM | Cc1ccc2c(n1)Oc1nc(-c3ccc(C(=O)N(C)C)cc3)ccc1[C@H]2C(C)(C)C(=O)Nc1ncns1 [Example 13] | 38.1%
13 | 97.2 nM | CCN(C)C(=O)c1ccc(-c2ccc3c(n2)Oc2nc(C)ccc2C3C(C)(C)C(=O)Nc2nncs2)cc1 (stereo not shown) [Example 14, 4-(5-(1,1-dimethyl-2-oxo-2-(1,3,4-thiadiazol-2-ylamino)ethyl)-8-methyl-5H-pyrido[3′,2′:5,6]pyrano[2,3-b]pyridin-2-yl)-N-ethyl-N-methylbenzamide] | 58%
14 | 460 nM | Cc1ccc2c(n1)Oc1nc(-c3ccc(C(=O)N4CCOCC4)cc3)ccc1C2C(C)(C)C(=O)Nc1nncs1 (stereo not shown) [Example 15] | 47.4%
15 | 541 nM | Cc1ccc2c(n1)Oc1nc(-c3ccc(C(=O)N4CCCC4)cc3)ccc1C2C(C)(C)C(=O)Nc1nncs1 (stereo not shown) [Example 16] | 40.2%
16 | 72.8 nM | CC(=O)c1ccc(-c2ccc3c(n2)Oc2nc(C)ccc2C3C(C)(C)C(=O)Nc2nncs2)cc1 (stereo not shown) [Example 17] | 42.4%

Row | EC50 | SMILES | Emax
17 | 52 nM | CCN(C)C(=O)c1ccc(-c2ccc3c(n2)Oc2nc(C)ccc2C3C(C)(C)C(=O)Nc2nncs2)cc1F (stereo not shown) [Example 18] | 47.8%
18 | 198 nM | Cc1ccc2c(n1)Oc1nc(N(C)C)ccc1C2C(C)(C)C(=O)Nc1nncs1 (stereo not shown) [Example 20, 2-(2-(dimethylamino)-8-methyl-5H-pyrido[3′,2′:5,6]pyrano[2,3-b]pyridin-5-yl)-2-methyl-N-1,3,4-thiadiazol-2-ylpropanamide] | 27.9%
19 | 166 nM | CCN(C)C(=O)c1ccc(-c2ccc3c(n2)Oc2nc(C)ccc2[C@@H]3C(C)(C)C(=O)Nc2nncs2)cc1F [Example 21] | 49.7%
20 | 81.9 nM | CCN(C)C(=O)c1ccc(-c2ccc3c(n2)Oc2nc(C)ccc2[C@@H]3C(C)(C)C(=O)Nc2nncs2)cc1 [Example 22] | 59.3%
21 | 41.9 nM | Cc1ccc2c(n1)Oc1nc(-c3ccc(SC(C)C)cc3)ccc1[C@H]2C(C)(C)C(=O)Nc1nncs1 [Example 27] | 32.4%
22 | 41.6 nM | Cc1ccc2c(n1)Oc1nc(-c3ccc(OC(C)C)cc3)ccc1[C@H]2C(C)(C)C(=O)Nc1nncs1 [Example 30] | 34.6%
23 | 376 nM | Cc1ccc2c(n1)Oc1nc(-c3ccc(C(=O)N4CCCC4)cc3)ccc1[C@H]2C(C)(C)C(=O)Nc1nncs1 [Example 31] | 49.3%
24 | 176 nM | CCOC(=O)c1nnc(NC(=O)C(C)(C)[C@H]2c3ccc(C)nc3Oc3nc(-c4ccc(C(=O)N(C)CC)cc4)ccc32)s1 [Example 32] | 74.3%
25 | 449 nM | CCN(C)C(=O)c1ccc(-c2ccc3c(n2)Oc2nc(C)ccc2[C@@H]3C(C)(C)C(=O)Nc2ncc(C)s2)cc1 [Example 33] | 50.8%
26 | 14.6 nM | CCN(C)C(=O)c1ccc(-c2ccc3c(n2)Oc2nc(C)ccc2[C@@H]3C(C)(C)C(=O)Nc2nccs2)cc1 [Example 34] | 64.9%
27 | 175 nM | CCN(C)C(=O)c1ccc(-c2ccc3c(n2)Oc2nc(C)ccc2[C@@H]3C(C)(C)C(=O)Nc2nnc(C)s2)cc1 [Example 35] | 45%
28 | 526 nM | Cc1ccc2c(n1)Oc1nc(-c3ccc([S+](C)[O-])cc3)ccc1C2C(C)(C)C(=O)Nc1nncs1 [Example 36, (4-((5S)-5-(1,1-dimethyl-2-oxo-2-(1,3,4-thiadiazol-2-ylamino)ethyl)-8-methyl-5H-pyrido[3′,2′:5,6]pyrano[2,3-b]pyridin-2-yl)phenyl)(methyl)sulfoniumolate] | 26.9%
29 | 470 nM | Cc1ccc2c(n1)Oc1nc(-c3ccc(C(=O)N4CCC4)cc3)ccc1[C@H]2C(C)(C)C(=O)Nc1nncs1 [Example 38] | 41.9%
30 | 539 nM | Cc1ccc2c(n1)Oc1nc(-c3ccc(C(=O)N4CCC(F)(F)C4)cc3)ccc1[C@H]2C(C)(C)C(=O)Nc1nncs1 [Example 40] | 43.3%
31 | 359 nM | Cc1ccc2c(n1)Oc1nc(-c3ccc(C(=O)N(C)C4CC4)cc3)ccc1[C@H]2C(C)(C)C(=O)Nc1nncs1 [Example 41] | 39.2%
32 | 228 nM | Cc1ccc2c(n1)Oc1nc(-c3ccc(C(=O)N4CCOCC4)c(F)c3)ccc1[C@H]2C(C)(C)C(=O)Nc1nncs1 [Example 42] | 43.6%
